From article PMC9942557, “Bolaamphiphile Analogues of 12-bis-THA Cl2 Are Potent Antimicrobial Therapeutics with Distinct Mechanisms of Action against Bacterial, Mycobacterial, and Fungal Pathogens” (mSphere, 2022)
Where two headings read alike, the source gives them in different places.

Columns and labels:
P. aeruginosa PAO1 = test: Fixed-concentration (0.25× MIC bolalipid) synergy broth microdilution; assay type: cell-based, Pseudomonas aeruginosa; settings: for MIC: Pseudomonas aeruginosa, PAO1, P. aeruginosa PAO1, read-out: MIC of aminoglycoside; for MIC of antibiotic: P. aeruginosa PAO1
K. pneumoniae M6 = test: as above; assay type: cell-based; settings: Klebsiella pneumoniae
E. coli NCTC 12923 = test: as above; assay type: cell-based; settings: Escherichia coli, NCTC12923, E. coli NCTC 12923, read-out: MIC of aminoglycoside
A. baumannii ATCC 17978 [1] = test: G. mellonella burn wound infection model; assay type: in vivo, Galleria mellonella; settings: alone
Description: In addition to the intrahemocoelic infection/therapy models described above, a recently described G. mellonella burn wound model was adopted ([37]). The burn was created using the flat head of a nail, which was heated in a blue Bunsen burner flame until red hot, cooled for 15 s, and superficially applied for 2 s to generate a 2-mm^2 burn. Larvae were then infected with a single colony of A. baumannii ATCC 17978 applied directly to the burn site, or sterile phosphate-buffered saline was applied as a control. Treatment was applied topically 1 h after infection in a volume of 5 μL. Survival was monitored over 96 h.

K. pneumoniae NCTC 13368 = test: Fixed-concentration (0.25× MIC bolalipid) synergy broth microdilution; assay type: cell-based, Klebsiella pneumoniae; settings: for MIC of aminoglycoside: K. pneumoniae NCTC 13368; for MIC: Klebsiella pneumoniae
P. aeruginosa NCTC 13437 = test: as above; assay type: cell-based, Pseudomonas aeruginosa; settings: for MIC: Pseudomonas aeruginosa, NCTC13437, P. aeruginosa NCTC 13437, read-out: MIC of aminoglycoside; for MIC of antibiotic: P. aeruginosa NCTC 13437
A. baumannii AYE = test: as above; assay type: cell-based; settings: Acinetobacter baumannii
A. baumannii ATCC 17978 [2] = test: as above; assay type: cell-based; settings: Acinetobacter baumannii, ATCC17978, A. baumannii ATCC 17978, read-out: MIC of aminoglycoside
EMRSA-15 = assay type: in vivo, Galleria mellonella
[3] = tested on: Ac. pleuropneumoniae 2331; test: Checkerboard synergy assay (BHI, 5% FBS, 0.01% NAD); assay type: cell-based, Actinobacillus pleuropneumoniae
[4] = tested on: Ac. pleuropneumoniae 2356; test: as above; assay type: cell-based, Actinobacillus pleuropneumoniae
[5] = tested on: Ac. pleuropneumoniae 3370; test: as above; assay type: cell-based, Actinobacillus pleuropneumoniae
[6] = tested on: Ac. pleuropneumoniae Shope; test: as above; assay type: cell-based, Actinobacillus pleuropneumoniae
[7] = tested on: Pseudomonas aeruginosa RP73; test: In vitro pharmacodynamic (PD) assay; settings: P. aeruginosa RP73; combination 2:1 (wt/wt)
Description: In vitro PD assays were performed with Pseudomonas aeruginosa RP73 cultured in Roswell Park Memorial Institute 1640 medium (RPMI) supplemented with 5% Mueller-Hinton broth (MHB) ([35]). Bacteria were cultured overnight in 10 mL of RPMI–5% MHB at 37°C and diluted just prior to plate inoculation to an OD600 of 0.002. Stock solutions of colistin or tobramycin were prepared in sterile MilliQ water at a concentration of 200× MIC. Octa-bola was prepared in methanol at 2,000× MIC and diluted in water to 200× MIC. A dilution series was made in the top row of a polypropylene 96-well plate from 200× MIC to 0.2× MIC in a volume of 100 μL, to which 100 μL of the bacterial suspension was added to have a total of 1 × 10^6 log-phase CFU in 200 μL. The first time zero sample was taken <30 s after addition of bacteria to the plate, with further samples taken at appropriate intervals thereafter. […] Fifteen microliters was removed from each well, diluted 1:1,000 in phosphate-buffered saline, and plated onto RPMI–5% MH agar plates. The plates were incubated at 37°C overnight for CFU counting.
CFU data were log10 transformed, and the bacterial net growth rate was determined from the increase or decrease in CFU during the time of exposure to the antibiotics as the coefficient of a linear regression of log10 CFU as a function of time. The intercept of the regression was fixed by forcing the regression lines through the first CFU measurement (0 min) at a given antimicrobial concentration. The pharmacodynamic function according to Regoes et al. ([36]) describes the relationship between bacterial net growth rate (ψ) and the concentration of an antimicrobial (a): ψmax − ([ψmax − ψmin][a/zMIC])^κ/([a/zMIC]^κ − [ψmin/ψmax]). Fitting this function to the net bacterial growth rates in OriginPro 2020 (OriginLab Corporation, Northampton, MA) generates the parameters ψmin and ψmax (minimum and maximum growth rates, respectively), zMIC (the pharmacodynamic MIC), and κ (a measure of the cooperativity). […]

[8] = in the presence of 0.25× MIC Octa-Bola
[9] = in the presence of 0.25× MIC Octa-C6
[10] = in the presence of 0.25× MIC Octa-C10
[11] = No bola, read-out: MIC of aminoglycoside
[12] = in the presence of 0.25× MIC Octa-Bola, read-out: MIC of aminoglycoside
[13] = in the presence of 0.25× MIC Octa-C6, read-out: MIC of aminoglycoside
[14] = in the presence of 0.25× MIC Octa-C10, read-out: MIC of aminoglycoside
[15] = in the presence of 0.25× MIC Octa-C10 (Table S1)
[16] = in the presence of 0.25× MIC Octa-bola (Table S1)

`CNC(C)C1CCC(N)C(OC2C(N)CC(N)C(OC3OCC(C)(O)C(NC)C3O)C2O)O1` (centres unmarked) [Gentamicin] showed an MIC (P. aeruginosa PAO1; No bola) of 2 µg/mL, an MIC (P. aeruginosa PAO1; [8]) of 0.5 µg/mL and an MIC (P. aeruginosa PAO1; [9]) of 0.25 µg/mL. It also gave an MIC (P. aeruginosa PAO1; [10]) of 0.25 µg/mL, an MIC (K. pneumoniae M6; [11]) of 1 µg/mL and an MIC (K. pneumoniae M6; [12]) of 1 µg/mL. It also gave an MIC (K. pneumoniae M6; [13]) of 1 µg/mL, an MIC (K. pneumoniae M6; [14]) of 1 µg/mL and an MIC (E. coli NCTC 12923; No bola) of 2 µg/mL. The MIC (E. coli NCTC 12923; [8]) was 2 µg/mL, the MIC (E. coli NCTC 12923; [9]) was 2 µg/mL and the MIC (E. coli NCTC 12923; [10]) was 1 µg/mL. The larvae rescued (A. baumannii ATCC 17978 [1]; 5 mg/kg topical, 96 h) was 76%, the protection (A. baumannii ATCC 17978 [1]; lower doses (2.5 and 1.25 mg/kg)) was “ineffective” and the MIC of aminoglycoside (K. pneumoniae NCTC 13368; [9]) was 16 µg/mL. It also gave an MIC of aminoglycoside (K. pneumoniae NCTC 13368; [10]) of 16 µg/mL, an MIC (K. pneumoniae NCTC 13368; NCTC13368, K. pneumoniae NCTC 13368, in the presence of 0.25× MIC Octa-Bola, read-out: MIC of aminoglycoside) of 8 µg/mL and an MIC (K. pneumoniae NCTC 13368; NCTC13368, read-out: MIC of aminoglycoside) of 16 µg/mL. For the same compound, the MIC (P. aeruginosa NCTC 13437; No bola) was 256 µg/mL, the MIC (P. aeruginosa NCTC 13437; [8]) was 8 µg/mL and the MIC (P. aeruginosa NCTC 13437; [9]) was 8 µg/mL. The MIC (P. aeruginosa NCTC 13437; [10]) was 8 µg/mL, the MIC (A. baumannii AYE; [11]) was 256 µg/mL and the MIC (A. baumannii AYE; [12]) was 0.5 µg/mL. The MIC (A. baumannii AYE; [13]) was 32 µg/mL, the MIC (A. baumannii AYE; [14]) was 4 µg/mL and the MIC (A. baumannii ATCC 17978 [2]; No bola) was 2 µg/mL. The MIC (A. baumannii ATCC 17978 [2]; [8]) was 0.25 µg/mL, the MIC (A. baumannii ATCC 17978 [2]; [9]) was 1 µg/mL and the MIC (A. baumannii ATCC 17978 [2]; [10]) was 1 µg/mL.

`CN[C@H](CC(C)C)C(=O)N[C@H]1C(=O)N[C@@H](CC(N)=O)C(=O)N[C@H]2C(=O)N[C@H]3C(=O)N[C@H](C(=O)N[C@H](C(=O)O)c4cc(O)cc(O)c4-c4cc3ccc4O)[C@H](O)c3ccc(c(Cl)c3)Oc3cc2cc(c3O[C@@H]2O[C@H](CO)[C@@H](O)[C@H](O)[C@H]2O[C@H]2C[C@](C)(N)[C@H](O)[C@H](C)O2)Oc2ccc(cc2Cl)[C@H]1O` [Vancomycin, reference compound] was tested, and the infected larvae rescued (EMRSA-15; 50 mg/kg, single injection 2 h postinfection) was roughly 80% and the infected larvae rescued (EMRSA-15; a tenth of 50 mg/kg dose) was 45%.

For `CCN1CCN(c2cc3c(cc2F)c(=O)c(C(=O)O)cn3C2CC2)CC1` [enrofloxacin, reference compound], the “MIC alone Antibiotic” value ([3]; Octa-C10/enrofloxacin) was 0.125 µg/mL, the “MIC alone Antibiotic” value ([4]; Octa-C10/enrofloxacin) was 0.125 µg/mL and the “MIC alone Antibiotic” value ([5]; Octa-C10/enrofloxacin) was 0.125 µg/mL. The “MIC alone Antibiotic” value ([6]; Octa-C10/enrofloxacin) was 0.125 µg/mL.

With `[H]/N=C(/N)N[C@H]1[C@H](O)[C@@H](O)[C@H](O[C@@H]2O[C@@H](C)[C@](O)(C=O)[C@H]2O[C@@H]2O[C@@H](CO)[C@H](O)[C@@H](O)[C@@H]2NC)[C@@H](N/C(N)=N\[H])[C@@H]1O` [streptomycin, reference compound] the “MIC alone Antibiotic” value ([3]; Octa-C10/streptomycin) was 32 µg/mL, the “MIC alone Antibiotic” value ([4]; Octa-C10/streptomycin) was 64 µg/mL and the “MIC alone Antibiotic” value ([5]; Octa-C10/streptomycin) was 16 to 64 µg/mL. The “MIC alone Antibiotic” value ([6]; Octa-C10/streptomycin) was 32 to 64 µg/mL.

With Colistin the MIC of antibiotic (P. aeruginosa PAO1; No bola (Table S1)) was 0.125 to 0.25 µg/mL, the MIC of antibiotic (P. aeruginosa PAO1; [15]) was 0.06 µg/mL and the MIC of antibiotic (P. aeruginosa PAO1; [16]) was 0.06 µg/mL. The “bactericidal activity (minimum growth rate, ψmin)” value [7] was “weakly bactericidal”, the MIC of antibiotic (P. aeruginosa NCTC 13437; No bola (Table S1)) was 0.25 to 0.5 µg/mL and the MIC of antibiotic (P. aeruginosa NCTC 13437; [15]) was 0.125 to 0.25 µg/mL. For the same compound, the MIC of antibiotic (P. aeruginosa NCTC 13437; [16]) was 0.125 µg/mL.
